Experimental data: PubChem BioAssay AID2060360 (Molecular Pharmacology Branch, DTP, NCI, 2025)

System: 282377-053-R-J1-PDC tumor spheroids, viability
Test: Anticancer human tumor 282377-053-R-J1-PDC patient-derived colon adenocarcinoma cell line growth inhibition [TAK]
Details: spheroids with HUVEC and MSC; for IC50: curve of first compound; for viability, T/C: stronger effect = lower value
Outline: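 Spheroids of 60% malignant cells, 25% HUVEC and 15% hMSC were exposed to targeted agents combined with TAK-243 or ipatasertib. Concentrations started at or near clinical Cmax (10 microM if unknown) and descended in half-log steps.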
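Also: spheroids exposed to drugs for seven days before readout.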

**Q.** For `CC(=O)Nc1cccc(-n2c(=O)n(C3CC3)c(=O)c3c(Nc4ccc(I)cc4F)n(C)c(=O)c(C)c32)c1` + CC(C)NCC(C(=O)N1CCN(c2ncnc3c2C(C)CC3O)CC1)c1ccc(Cl)cc1, which IC50 (second compound 0.3 µM) is on record?
**A.** Its IC50 is 2.49 nM.

**Q.** What about the IC50 (second compound 0.949 µM) of the same compound?
**A.** Its IC50 is 1.95 nM.

**Q.** And the IC50 (second compound 3 µM)?
**A.** The IC50 was 1.44 nM.

**Q.** What about the IC50 (second compound 9.49 µM) of the same compound?
**A.** Its IC50 is 1.54 nM.

**Q.** And the IC50 (second compound 30 µM)?
**A.** The IC50 was 0.516 nM.

**Q.** And the viability, T/C (second compound 0.3 µM, first compound 94.9 pM)?
**A.** Its viability, T/C is 96%.

**Q.** What about the viability, T/C (second compound 0.3 µM, first compound 0.0003 µM) of the same compound?
**A.** Its viability, T/C is 79%.

**Q.** And the viability, T/C (second compound 0.3 µM, first compound 0.000949 µM)?
**A.** The viability, T/C was 67.5%.

**Q.** And the viability, T/C (second compound 0.3 µM, first compound 0.003 µM)?
**A.** Its viability, T/C is 49.2%.

**Q.** What about the viability, T/C (second compound 0.3 µM, first compound 0.00949 µM) of the same compound?
**A.** The viability, T/C was 24.9%.

**Q.** And the viability, T/C (second compound 0.3 µM, first compound 0.03 µM)?
**A.** The viability, T/C was 12.4%.

**Q.** And the viability, T/C (second compound 0.949 µM, first compound 94.9 pM)?
**A.** Its viability, T/C is 86.8%.

**Q.** What about the viability, T/C (second compound 0.949 µM, first compound 0.0003 µM) of the same compound?
**A.** Its viability, T/C is 76.9%.

**Q.** What about the viability, T/C (second compound 0.949 µM, first compound 0.000949 µM) of the same compound?
**A.** Its viability, T/C is 55.2%.

**Q.** And the viability, T/C (second compound 0.949 µM, first compound 0.003 µM)?
**A.** The viability, T/C was 49.3%.

**Q.** What about the viability, T/C (second compound 0.949 µM, first compound 0.00949 µM) of the same compound?
**A.** The viability, T/C was 24.8%.

**Q.** What about the viability, T/C (second compound 0.949 µM, first compound 0.03 µM) of the same compound?
**A.** The viability, T/C was 11.8%.

**Q.** What about the viability, T/C (second compound 3 µM, first compound 94.9 pM) of the same compound?
**A.** The viability, T/C was 78.2%.

**Q.** What about the viability, T/C (second compound 3 µM, first compound 0.0003 µM) of the same compound?
**A.** Its viability, T/C is 70.6%.

**Q.** And the viability, T/C (second compound 3 µM, first compound 0.000949 µM)?
**A.** The viability, T/C was 53.6%.

**Q.** What about the viability, T/C (second compound 3 µM, first compound 0.003 µM) of the same compound?
**A.** Its viability, T/C is 40.8%.

**Q.** What about the viability, T/C (second compound 3 µM, first compound 0.00949 µM) of the same compound?
**A.** Its viability, T/C is 26.7%.

**Q.** And the viability, T/C (second compound 3 µM, first compound 0.03 µM)?
**A.** Its viability, T/C is 13.7%.

**Q.** And the viability, T/C (second compound 9.49 µM, first compound 94.9 pM)?
**A.** Its viability, T/C is 75.4%.

**Q.** And the viability, T/C (second compound 9.49 µM, first compound 0.0003 µM)?
**A.** The viability, T/C was 71.7%.

**Q.** What about the viability, T/C (second compound 9.49 µM, first compound 0.000949 µM) of the same compound?
**A.** Its viability, T/C is 56.8%.

**Q.** And the viability, T/C (second compound 9.49 µM, first compound 0.003 µM)?
**A.** Its viability, T/C is 38.4%.

**Q.** And the viability, T/C (second compound 9.49 µM, first compound 0.00949 µM)?
**A.** The viability, T/C was 25.9%.

**Q.** What about the viability, T/C (second compound 9.49 µM, first compound 0.03 µM) of the same compound?
**A.** The viability, T/C was 12.4%.

**Q.** What about the viability, T/C (second compound 30 µM, first compound 94.9 pM) of the same compound?
**A.** The viability, T/C was 64%.

**Q.** And the viability, T/C (second compound 30 µM, first compound 0.0003 µM)?
**A.** The viability, T/C was 58.6%.

**Q.** What about the viability, T/C (second compound 30 µM, first compound 0.000949 µM) of the same compound?
**A.** The viability, T/C was 41.6%.

**Q.** What about the viability, T/C (second compound 30 µM, first compound 0.003 µM) of the same compound?
**A.** Its viability, T/C is 27%.

**Q.** What about the viability, T/C (second compound 30 µM, first compound 0.00949 µM) of the same compound?
**A.** The viability, T/C was 22.9%.

**Q.** And the viability, T/C (second compound 30 µM, first compound 0.03 µM)?
**A.** The viability, T/C was 12.3%.

**Q.** Which results are given for `CC(C)CC(NC(=O)CNC(=O)c1cc(Cl)ccc1Cl)B1OC(=O)CC(CC(=O)O)(C(=O)O)O1` (stereo not given) + CC(C)NCC(C(=O)N1CCN(c2ncnc3c2C(C)CC3O)CC1)c1ccc(Cl)cc1?
**A.** IC50 (second compound 0.3 µM): 53.8 nM; IC50 (second compound 0.949 µM): 47.9 nM; IC50 (second compound 3 µM): 43.8 nM; IC50 (second compound 9.49 µM): 39.3 nM; IC50 (second compound 30 µM): 36.3 nM; viability, T/C (second compound 0.3 µM, first compound 0.000316 µM): 99.5%; viability, T/C (second compound 0.3 µM, first compound 0.001 µM): 93.9%; viability, T/C (second compound 0.3 µM, first compound 0.00316 µM): 94.3%; viability, T/C (second compound 0.3 µM, first compound 0.01 µM): 92.7%; viability, T/C (second compound 0.3 µM, first compound 0.0316 µM): 89.7%; viability, T/C (second compound 0.3 µM, first compound 0.1 µM): 3.57%; viability, T/C (second compound 0.949 µM, first compound 0.000316 µM): 100%; viability, T/C (second compound 0.949 µM, first compound 0.001 µM): 88.3%; viability, T/C (second compound 0.949 µM, first compound 0.00316 µM): 87.1%; viability, T/C (second compound 0.949 µM, first compound 0.01 µM): 94.5%; viability, T/C (second compound 0.949 µM, first compound 0.0316 µM): 77.1%; viability, T/C (second compound 0.949 µM, first compound 0.1 µM): 1.73%; viability, T/C (second compound 3 µM, first compound 0.000316 µM): 82.4%; viability, T/C (second compound 3 µM, first compound 0.001 µM): 87.8%; viability, T/C (second compound 3 µM, first compound 0.00316 µM): 84.2%; viability, T/C (second compound 3 µM, first compound 0.01 µM): 84.5%; viability, T/C (second compound 3 µM, first compound 0.0316 µM): 69.2%; viability, T/C (second compound 3 µM, first compound 0.1 µM): 1.39%; viability, T/C (second compound 9.49 µM, first compound 0.000316 µM): 81.3%; viability, T/C (second compound 9.49 µM, first compound 0.001 µM): 79.3%; viability, T/C (second compound 9.49 µM, first compound 0.00316 µM): 81.7%; viability, T/C (second compound 9.49 µM, first compound 0.01 µM): 77.5%; viability, T/C (second compound 9.49 µM, first compound 0.0316 µM): 61.5%; viability, T/C (second compound 9.49 µM, first compound 0.1 µM): 1.53%; viability, T/C (second compound 30 µM, first compound 0.000316 µM): 70.2%; viability, T/C (second compound 30 µM, first compound 0.001 µM): 74.6%; viability, T/C (second compound 30 µM, first compound 0.00316 µM): 67.7%; viability, T/C (second compound 30 µM, first compound 0.01 µM): 66.8%; viability, T/C (second compound 30 µM, first compound 0.0316 µM): 57.3%; viability, T/C (second compound 30 µM, first compound 0.1 µM): 0.99%
